Experimental data published in the supplement of paper PMC11208160.

Assay: recombinant UMI read abundance after kanamycin selection (control-corrected) (log10(CPM+1)); higher = more efficient recombination; extreme values may be limits of the assay; sequences stand for … in AGTGCAGAGAAAATCGGCCAGTTTTCTCTGCCTGCAGTCCGCATGCCGTGGGACCCCTTGGGTTCTAACCTGTTGCCTAGATTTATGCAGCGGACTGCCTTTCTCCCAAAGTGATAAACCGG…AGGTTGGTTTCACT; site = the 11-nt donor
Procedure, shortened: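 Each donor and donor-binding-loop pair was tracked by a 12-nt UMI on a plasmid carrying a promoterless kanamycin gene. With a second plasmid supplying a fixed target and T7-inducible IS621 bridge recombinase, the pool was plated in Escherichia coli on IPTG (0.07 mM) plus kanamycin or unselected. Sequencing of recombinant UMIs across the donor–target junction gave counts expressed as log10(CPM+1) after replicate averaging and control-derived scaling.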
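Further: IS621 bridge recombinase in Escherichia coli cells against a fixed T5 target plasmid.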

Sequence | recombinant UMI read abundance (log10)
CACTGGGCATGGACCGGTTTTCCCGGTAATCCGTATTTGGA (site CACTCGGCTTC) | 0.0182
CACTGGGCATGGACCGGTTTTCCCGGTAATCCGTATTTGGA (site CACTGGGCTTC) | 1.12
CACTGGGCATGGACCGGTTTTCCCGGTAATCCGTATTTGGA (site CACTTGGCTTC) | 0.0159
CACTTAACATGGACCGGTTTTCCCGGTAATCCGTATTTGCC (site CACTTAACTGG) | 0.774
CACTTCCCATGGACCGGTTTTCCCGGTAATCCGTATTTGCT (site CAATTCCCTAG) | 0
CACTTCCCATGGACCGGTTTTCCCGGTAATCCGTATTTGCT (site CACTTCCCTAG) | 0.617
CACTTCCCATGGACCGGTTTTCCCGGTAATCCGTATTTGCT (site CAGTTCCCTAG) | 0.521
CACTTCCCATGGACCGGTTTTCCCGGTAATCCGTATTTGCT (site CATTTCCCTAG) | 0
CACTTCTCATGGACCGGTTTTCCCGGTAATCCGTATTTGGG (site CACTTCTCTCC) | 0.00463
CACTTCTCATGGACCGGTTTTCCCGGTAATCCGTATTTGGG (site CCCTTCTCTCC) | 0.00683
CACTTCTCATGGACCGGTTTTCCCGGTAATCCGTATTTGGG (site CGCTTCTCTCC) | 0
CACTTCTCATGGACCGGTTTTCCCGGTAATCCGTATTTGGG (site CTCTTCTCTCC) | 0
CACTTGACATGGACCGGTTTTCCCGGTAATCCGTATTTGCT (site AACTTGACTAG) | 0
CACTTGACATGGACCGGTTTTCCCGGTAATCCGTATTTGCT (site CACTTGACTAG) | 2.31
CACTTGACATGGACCGGTTTTCCCGGTAATCCGTATTTGCT (site GACTTGACTAG) | 0
CACTTGACATGGACCGGTTTTCCCGGTAATCCGTATTTGCT (site TACTTGACTAG) | 0.365
CAGAAGCCATGGACCGGTTTTCCCGGTAATCCGTATTTGGT (site CAGAAGCCTAC) | 0.535
CAGAAGCCATGGACCGGTTTTCCCGGTAATCCGTATTTGTT (site CAGAAGCCTAA) | 1.14
CAGAAGCCATGGACCGGTTTTCCCGGTAATCCGTATTTGTT (site CGGAATCCTAA) | 0
CAGAATACATGGACCGGTTTTCCCGGTAATCCGTATTTGTT (site CAGAATACTAA) | 2.12
CAGAATACATGGACCGGTTTTCCCGGTAATCCGTATTTGTT (site CGGAATCCTAA) | 0
CAGAATTCATGGACCGGTTTTCCCGGTAATCCGTATTTGGA (site CAGAATTCTTC) | 3.34
CAGATACCATGGACCGGTTTTCCCGGTAATCCGTATTTGGA (site CAGATACCTTC) | 0.0326
CAGCACGCATGGACCGGTTTTCCCGGTAATCCGTATTTGCA (site CAGCACGCTTG) | 2.58
CAGCTCACATGGACCGGTTTTCCCGGTAATCCGTATTTGAT (site AAGCTCACTAT) | 0.444

Sequence | recombinant UMI read abundance (log10)
CAGCTCACATGGACCGGTTTTCCCGGTAATCCGTATTTGAT (site CAGCTCACTAT) | 2.31
CAGCTCACATGGACCGGTTTTCCCGGTAATCCGTATTTGAT (site GAGCTCACTAT) | 0.00621
CAGCTCACATGGACCGGTTTTCCCGGTAATCCGTATTTGAT (site TAGCTCACTAT) | 0.404
CAGCTCGCATGGACCGGTTTTCCCGGTAATCCGTATTTGAC (site CAGCTCGCTGT) | 2.55
CAGGAAACATGGACCGGTTTTCCCGGTAATCCGTATTTGCA (site CAGGAAACTTG) | 1.79
CAGGAAACATGGACCGGTTTTCCCGGTAATCCGTATTTGCA (site CCGGAAACTTG) | 0
CAGGAAACATGGACCGGTTTTCCCGGTAATCCGTATTTGCA (site CGGGAAACTTG) | 0
CAGGAAACATGGACCGGTTTTCCCGGTAATCCGTATTTGCA (site CTGGAAACTTG) | 2.49
CAGGAATCATGGACCGGTTTTCCCGGTAATCCGTATTTGCA (site CAGGAATCTTG) | 3.17
CAGGAATCATGGACCGGTTTTCCCGGTAATCCGTATTTGCG (site AAGGAATCTCG) | 1.51
CAGGAATCATGGACCGGTTTTCCCGGTAATCCGTATTTGCG (site CAGGAATCTCG) | 3.26
CAGGAATCATGGACCGGTTTTCCCGGTAATCCGTATTTGCG (site GAGGAATCTCG) | 0.395
CAGGAATCATGGACCGGTTTTCCCGGTAATCCGTATTTGCG (site TAGGAATCTCG) | 2.69
CAGGACTCATGGACCGGTTTTCCCGGTAATCCGTATTTGTT (site CAGGACTCTAA) | 2.96
CAGGCATCATGGACCGGTTTTCCCGGTAATCCGTATTTGTC (site CAGGCATCTGA) | 2.76
CAGGCGTCATGGACCGGTTTTCCCGGTAATCCGTATTTGGA (site CAGGCGTCTTC) | 1.89
CAGGGCCCATGGACCGGTTTTCCCGGTAATCCGTATTTGTG (site CAGGGCCCTCA) | 0.282
CAGGGTGCATGGACCGGTTTTCCCGGTAATCCGTATTTGGT (site CAGGGTGCTAC) | 1.49
CAGTACACATGGACCGGTTTTCCCGGTAATCCGTATTTGCT (site CAGTACACTAG) | 2.43
CAGTCAACATGGACCGGTTTTCCCGGTAATCCGTATTTGTG (site CAGTCAACTCA) | 0.0625
CAGTCGACATGGACCGGTTTTCCCGGTAATCCGTATTTGCG (site CAGTCGACTCA) | 0
CAGTCGACATGGACCGGTTTTCCCGGTAATCCGTATTTGCG (site CAGTCGACTCC) | 0
CAGTCGACATGGACCGGTTTTCCCGGTAATCCGTATTTGCG (site CAGTCGACTCG) | 0.869
CAGTCGACATGGACCGGTTTTCCCGGTAATCCGTATTTGCG (site CAGTCGACTCT) | 0.00924
CAGTCGACATGGACCGGTTTTCCCGGTAATCCGTATTTGGC (site CAGTCGACTAC) | 0.105

Sequence | recombinant UMI read abundance (log10)
CAGTCGACATGGACCGGTTTTCCCGGTAATCCGTATTTGGC (site CAGTCGACTCC) | 0.00601
CAGTCGACATGGACCGGTTTTCCCGGTAATCCGTATTTGGC (site CAGTCGACTGC) | 1.37
CAGTCGACATGGACCGGTTTTCCCGGTAATCCGTATTTGGC (site CAGTCGACTTC) | 0.0416
CAGTCGCCATGGACCGGTTTTCCCGGTAATCCGTATTTGGG (site CAGTCGACTCC) | 0.0111
CAGTCGCCATGGACCGGTTTTCCCGGTAATCCGTATTTGGG (site CAGTCGCCTCC) | 0.0028
CAGTCGCCATGGACCGGTTTTCCCGGTAATCCGTATTTGGG (site CAGTCGGCTCC) | 0.0208
CAGTCGCCATGGACCGGTTTTCCCGGTAATCCGTATTTGGG (site CAGTCGTCTCC) | 0
CAGTCGGCATGGACCGGTTTTCCCGGTAATCCGTATTTGCT (site CAGTCGGCTAG) | 0.438
CAGTGGACATGGACCGGTTTTCCCGGTAATCCGTATTTGTG (site CAGTGGACTCA) | 1.57
CAGTTTACATGGACCGGTTTTCCCGGTAATCCGTATTTGCT (site CAGTTTACTAG) | 2.07
CAGTTTACATGGACCGGTTTTCCCGGTAATCCGTATTTGCT (site CCGTTTACTAG) | 0.978
CAGTTTACATGGACCGGTTTTCCCGGTAATCCGTATTTGCT (site CGGTTTACTAG) | 0
CAGTTTACATGGACCGGTTTTCCCGGTAATCCGTATTTGCT (site CTGTTTACTAG) | 0.662
CATACACCATGGACCGGTTTTCCCGGTAATCCGTATTTGTA (site CATACACCTTA) | 0.00749
CATACAGCATGGACCGGTTTTCCCGGTAATCCGTATTTGTG (site CATACAGCTCA) | 1.18
CATAGCGCATGGACCGGTTTTCCCGGTAATCCGTATTTGTC (site CATAGCGCTGA) | 2.99
CATAGTCCATGGACCGGTTTTCCCGGTAATCCGTATTTGAA (site CATAGTCCTTT) | 0.981
CATCAGTCATGGACCGGTTTTCCCGGTAATCCGTATTTGGT (site CATCAGTCTAC) | 2.17
CATCCATCATGGACCGGTTTTCCCGGTAATCCGTATTTGGG (site CATCCATCTCC) | 0.0148
CATCCCTCATGGACCGGTTTTCCCGGTAATCCGTATTTGTA (site CATCCCTCTTA) | 3.33
CATCGTACATGGACCGGTTTTCCCGGTAATCCGTATTTGGT (site AGAGTGGCTTA) | 0.00765
CATCTGTCATGGACCGGTTTTCCCGGTAATCCGTATTTGGG (site CATCTGTCTCC) | 0.559
CATGACTCATGGACCGGTTTTCCCGGTAATCCGTATTTGTC (site CATGACTCTGA) | 1.71
CATGCACCATGGACCGGTTTTCCCGGTAATCCGTATTTGAC (site CATGCACCTGT) | 0
CATGCAGCATGGACCGGTTTTCCCGGTAATCCGTATTTGCT (site CAAGCAGCTAG) | 0.856
